Measured values as given in US20250236611A1, “PYRAZOLE COMPOUNDS AND USES THEREOF” (ALCON INC., priority 2021, published 2025).

What was measured:
Assay type in all cases: biochemical
Conditions in all cases: 10 nM JAK enzyme, 800 nM Abl peptide, room temperature 75 min
JAK2 = JAK2 (Homo sapiens, UniProt O60674); assay: JAK assay (KINASE-GLO luminescent kinase assay), JAK2
Method in brief: (§1)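 The 2× mix gave 10 nM kinase, 800 nM Abl peptide and 2 µM DTT, and ATP was added as a 4× stock (2 µM), in HEPES pH 7.5 buffer. Compounds ran as an 11-point series, 100 µM–10 pM final in 2.5% DMSO, for 75 min at RT. Remaining ATP was read by luminescence against DMSO control, and 4-parameter IC50s were converted to Ki by Cheng-Prusoff.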

JAK3 = target: T1, JAK3 (Homo sapiens, UniProt P52333); assay: JAK assay (KINASE-GLO luminescent kinase assay), JAK3
T1 sequence (P52333 1-1124): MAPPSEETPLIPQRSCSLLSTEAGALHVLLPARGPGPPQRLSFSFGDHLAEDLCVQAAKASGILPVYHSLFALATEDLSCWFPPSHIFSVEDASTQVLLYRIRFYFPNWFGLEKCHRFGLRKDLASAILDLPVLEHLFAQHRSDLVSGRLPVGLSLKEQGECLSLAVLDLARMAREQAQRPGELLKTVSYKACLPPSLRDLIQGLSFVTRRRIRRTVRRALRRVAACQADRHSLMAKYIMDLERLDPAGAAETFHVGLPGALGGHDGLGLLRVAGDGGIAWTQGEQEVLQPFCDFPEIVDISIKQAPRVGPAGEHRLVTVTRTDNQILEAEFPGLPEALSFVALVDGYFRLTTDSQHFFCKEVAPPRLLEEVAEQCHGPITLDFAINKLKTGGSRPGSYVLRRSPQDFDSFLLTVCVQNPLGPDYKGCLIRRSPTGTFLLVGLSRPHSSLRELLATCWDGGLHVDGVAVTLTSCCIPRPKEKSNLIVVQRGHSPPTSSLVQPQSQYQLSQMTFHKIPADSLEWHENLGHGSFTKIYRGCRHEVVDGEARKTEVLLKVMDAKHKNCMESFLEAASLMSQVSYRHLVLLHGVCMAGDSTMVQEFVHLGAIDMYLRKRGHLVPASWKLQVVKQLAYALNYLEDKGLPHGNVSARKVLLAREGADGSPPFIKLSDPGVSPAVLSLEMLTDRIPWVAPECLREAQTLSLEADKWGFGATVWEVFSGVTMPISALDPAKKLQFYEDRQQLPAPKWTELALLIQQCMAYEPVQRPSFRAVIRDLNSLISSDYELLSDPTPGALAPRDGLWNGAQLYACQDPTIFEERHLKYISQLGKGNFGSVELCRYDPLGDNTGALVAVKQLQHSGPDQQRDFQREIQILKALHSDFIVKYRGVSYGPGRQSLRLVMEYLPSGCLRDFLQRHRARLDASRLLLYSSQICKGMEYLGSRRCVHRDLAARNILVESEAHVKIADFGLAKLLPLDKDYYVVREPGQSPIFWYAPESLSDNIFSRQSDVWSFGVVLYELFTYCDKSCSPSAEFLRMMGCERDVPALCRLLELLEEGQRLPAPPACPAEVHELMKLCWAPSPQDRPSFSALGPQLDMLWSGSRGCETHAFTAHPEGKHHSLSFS
Method in brief: as §1

JAK1 = JAK1 (Homo sapiens, UniProt P23458); assay: JAK assay (KINASE-GLO luminescent kinase assay), JAK1
Method in brief: as §1

TYK2 = TYK2 (Homo sapiens, UniProt P29597); assay: JAK assay (KINASE-GLO luminescent kinase assay), TYK2
Sequence of TYK2 (P29597 whole entry): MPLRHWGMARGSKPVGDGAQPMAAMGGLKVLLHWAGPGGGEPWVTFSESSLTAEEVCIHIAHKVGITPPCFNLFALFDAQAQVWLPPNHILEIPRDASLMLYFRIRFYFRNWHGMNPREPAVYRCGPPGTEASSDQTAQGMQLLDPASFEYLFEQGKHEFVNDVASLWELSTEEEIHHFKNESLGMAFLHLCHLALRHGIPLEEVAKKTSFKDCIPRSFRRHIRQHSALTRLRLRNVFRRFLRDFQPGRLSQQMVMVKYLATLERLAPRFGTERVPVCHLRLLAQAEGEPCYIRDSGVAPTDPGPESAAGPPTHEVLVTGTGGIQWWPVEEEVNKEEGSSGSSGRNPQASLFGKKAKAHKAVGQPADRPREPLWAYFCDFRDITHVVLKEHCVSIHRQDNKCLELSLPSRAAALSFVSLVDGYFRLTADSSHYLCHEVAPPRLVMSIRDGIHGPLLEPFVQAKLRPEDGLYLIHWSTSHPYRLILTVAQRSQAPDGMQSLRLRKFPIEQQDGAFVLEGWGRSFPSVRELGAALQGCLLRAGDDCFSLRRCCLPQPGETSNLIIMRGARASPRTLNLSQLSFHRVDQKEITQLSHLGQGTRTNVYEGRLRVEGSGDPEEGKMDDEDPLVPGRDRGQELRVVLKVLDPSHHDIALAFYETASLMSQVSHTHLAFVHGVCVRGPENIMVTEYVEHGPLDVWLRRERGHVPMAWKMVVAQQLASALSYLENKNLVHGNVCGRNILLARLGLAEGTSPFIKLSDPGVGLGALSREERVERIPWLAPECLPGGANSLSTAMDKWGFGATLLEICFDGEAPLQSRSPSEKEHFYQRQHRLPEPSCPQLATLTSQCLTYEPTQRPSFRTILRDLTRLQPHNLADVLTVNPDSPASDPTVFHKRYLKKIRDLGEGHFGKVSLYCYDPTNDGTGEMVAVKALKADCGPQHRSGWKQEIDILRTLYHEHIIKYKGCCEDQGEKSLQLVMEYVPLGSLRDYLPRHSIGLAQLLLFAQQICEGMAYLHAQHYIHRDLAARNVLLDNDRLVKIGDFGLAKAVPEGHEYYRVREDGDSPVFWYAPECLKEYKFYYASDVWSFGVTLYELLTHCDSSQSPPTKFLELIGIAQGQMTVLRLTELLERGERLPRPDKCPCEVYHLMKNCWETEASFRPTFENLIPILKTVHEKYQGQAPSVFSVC

Sequence of JAK2 (O60674 whole entry): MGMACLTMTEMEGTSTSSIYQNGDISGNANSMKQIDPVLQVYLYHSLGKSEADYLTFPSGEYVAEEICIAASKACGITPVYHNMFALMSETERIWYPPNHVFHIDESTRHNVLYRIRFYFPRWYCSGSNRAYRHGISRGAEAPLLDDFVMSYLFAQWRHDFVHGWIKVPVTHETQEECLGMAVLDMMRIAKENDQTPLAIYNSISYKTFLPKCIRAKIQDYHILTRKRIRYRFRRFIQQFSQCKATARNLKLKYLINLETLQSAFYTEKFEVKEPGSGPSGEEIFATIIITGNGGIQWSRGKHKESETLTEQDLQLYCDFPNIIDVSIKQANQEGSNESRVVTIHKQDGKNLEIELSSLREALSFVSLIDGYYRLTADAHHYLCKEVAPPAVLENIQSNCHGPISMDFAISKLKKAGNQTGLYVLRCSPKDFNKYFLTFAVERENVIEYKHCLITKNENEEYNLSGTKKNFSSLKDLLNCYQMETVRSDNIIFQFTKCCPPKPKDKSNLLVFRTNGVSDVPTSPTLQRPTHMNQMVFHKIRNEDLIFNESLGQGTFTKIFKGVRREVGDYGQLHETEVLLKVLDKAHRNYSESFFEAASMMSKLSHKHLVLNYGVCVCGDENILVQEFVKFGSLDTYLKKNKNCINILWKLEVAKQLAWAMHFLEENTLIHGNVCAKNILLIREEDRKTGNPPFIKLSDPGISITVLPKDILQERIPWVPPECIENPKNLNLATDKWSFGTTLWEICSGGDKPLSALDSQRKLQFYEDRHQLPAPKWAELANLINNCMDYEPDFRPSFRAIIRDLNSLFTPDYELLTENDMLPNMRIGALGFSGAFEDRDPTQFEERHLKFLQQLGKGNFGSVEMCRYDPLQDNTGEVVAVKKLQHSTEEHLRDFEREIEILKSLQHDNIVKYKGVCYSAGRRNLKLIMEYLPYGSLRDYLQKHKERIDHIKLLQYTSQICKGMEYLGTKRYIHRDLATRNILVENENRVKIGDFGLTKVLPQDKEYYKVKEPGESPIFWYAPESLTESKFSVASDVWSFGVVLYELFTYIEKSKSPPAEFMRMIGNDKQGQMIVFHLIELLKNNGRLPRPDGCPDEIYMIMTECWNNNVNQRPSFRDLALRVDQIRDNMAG
Sequence of JAK1 (P23458 whole entry): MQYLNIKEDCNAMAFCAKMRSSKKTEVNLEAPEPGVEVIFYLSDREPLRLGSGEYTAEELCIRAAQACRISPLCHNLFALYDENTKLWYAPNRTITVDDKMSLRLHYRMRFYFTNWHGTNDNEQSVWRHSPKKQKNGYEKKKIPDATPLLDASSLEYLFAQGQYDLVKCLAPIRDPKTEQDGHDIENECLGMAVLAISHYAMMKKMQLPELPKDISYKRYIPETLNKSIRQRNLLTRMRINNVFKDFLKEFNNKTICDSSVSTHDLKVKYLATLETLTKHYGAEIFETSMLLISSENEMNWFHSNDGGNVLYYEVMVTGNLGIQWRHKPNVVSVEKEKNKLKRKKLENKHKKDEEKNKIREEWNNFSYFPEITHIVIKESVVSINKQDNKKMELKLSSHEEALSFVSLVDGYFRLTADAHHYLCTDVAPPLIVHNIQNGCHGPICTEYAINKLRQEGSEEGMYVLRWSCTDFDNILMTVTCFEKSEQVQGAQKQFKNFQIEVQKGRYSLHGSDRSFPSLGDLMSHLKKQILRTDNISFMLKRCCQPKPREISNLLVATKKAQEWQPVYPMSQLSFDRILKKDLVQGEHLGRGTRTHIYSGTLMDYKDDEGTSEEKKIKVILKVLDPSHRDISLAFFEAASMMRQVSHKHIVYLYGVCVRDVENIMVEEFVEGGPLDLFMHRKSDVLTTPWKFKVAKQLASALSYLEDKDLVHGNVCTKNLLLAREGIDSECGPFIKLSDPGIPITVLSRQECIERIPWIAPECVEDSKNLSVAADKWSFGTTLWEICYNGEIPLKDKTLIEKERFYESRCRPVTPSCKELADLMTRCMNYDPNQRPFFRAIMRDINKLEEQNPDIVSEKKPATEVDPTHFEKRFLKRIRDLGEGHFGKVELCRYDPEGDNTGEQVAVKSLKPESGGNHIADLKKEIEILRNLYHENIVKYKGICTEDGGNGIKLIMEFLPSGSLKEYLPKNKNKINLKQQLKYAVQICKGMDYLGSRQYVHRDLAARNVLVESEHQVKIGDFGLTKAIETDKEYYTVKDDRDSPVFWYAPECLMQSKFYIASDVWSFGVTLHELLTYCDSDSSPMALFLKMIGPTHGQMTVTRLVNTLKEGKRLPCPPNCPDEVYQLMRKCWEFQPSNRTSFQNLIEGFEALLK

Row | IC50 (JAK2) [nM] | IC50 (JAK3) [nM] | IC50 (JAK1) [nM] | IC50 (TYK2) [nM] | Compound
1 | < 10 | < 100 | < 100 | < 10 | N#CCCn1cc(-c2nc(Nc3ccc(CCO)cc3)ncc2Cl)cn1 [OCCC1═CC═C(NC2═NC(═C]
2 | < 100000 | > 50000 | < 100000 | < 100000 | N#CCCn1cc(-c2ccnc(NC(=O)C3CC3)n2)cn1 [O═C(NC1═NC(═CC═N1)C2═C[N]]

Second part, the compound before the results:

Row | Compound | IC50 (JAK2) [nM] | IC50 (JAK3) [nM] | IC50 (JAK1) [nM] | IC50 (TYK2) [nM]
3 | CC(C)(C)OC(=O)N1CC(C#N)(Cn2cc(-c3nc(Nc4ccc(C(N)=O)cc4)ncc3Cl)cn2)C1 [CC(C)(C)OC(═O)N1CC(C1)(C[N]2C═C] | < 10 | < 100 | < 100 | < 100
4 | COCc1cc(Nc2ncc(C)c(-c3cnn(CC4(CF)CC4)c3)n2)sn1 [COCC1═NSC(═C1)NC2═NC(═C] | < 100 | < 1000 | < 1000 | < 1000
5 | Cc1cnc(Nc2ccc(C3CN(C(=O)OC(C)(C)C)C3)cc2)nc1-c1cnn(CCC#N)c1 [CC1═C(N═C(NC2═CC═C(C═C2)C3CN] | < 10 | < 100 | < 100 | < 10
6 | CCS(=O)(=O)N1CC(CO)(Cn2cc(-c3nc(Nc4cc(C)ns4)ncc3Cl)cn2)C1 [CC[S](═O)(═O)N1CC(CO)] | < 1000 | < 100000 | < 1000 | < 100000
